Activity calls are given as the source filed them. The rule behind the calls is not given here.
Tested on: IEC-6 cytotoxicity, ATP luminescence
Experiment: cytotoxicity in IEC-6 intestinal cells, late-stage follow-up, cytotoxicity control for KLF5 inhibitor project, cell-based, luminescence, dose response, round 1 (AID 434956)

Structure (SMILES)	IC50
CC(C)C(=O)Nc1ccc2nn(-c3ccc(Cl)cc3)nc2c1	> 39.8 µM (inactive)
CC(=O)c1sc(NC(=O)c2ccc3ncsc3c2)nc1C	> 39.8 µM (inactive)
CCNC(=O)c1ccc2nc(Nc3nc4ccc(F)cc4s3)sc2c1	14.7 µM (inactive)
CCNC(=O)c1sc(NC(=O)c2ccc3ncsc3c2)nc1C	> 39.8 µM (inactive)
CCOc1ccc(NC(=O)CCc2nc(-c3ccc(C(C)(C)C)cc3)no2)cc1	> 39.8 µM (inactive)
CC1(C)CC(=O)c2sc(NC(=O)c3ccc4ncsc4c3)nc2C1	> 39.8 µM (inactive)
O=C(COc1ccccc1)Nc1ccc2nn(-c3cccc(Cl)c3)nc2c1	> 39.8 µM (inactive)
CC(NC(=O)c1ccccc1)c1nc(-c2ccc(C(C)(C)C)cc2)no1 (configuration not stated)	41.4 µM (inactive)
Cc1nc(NC(=O)c2ccc3ncsc3c2)sc1C(=O)N(C)C	> 39.8 µM (inactive)
CC(=O)Nc1ccc2nc(Nc3nc4ccc(F)cc4s3)sc2c1	14.7 µM (inactive)
O=C(Nc1cc2nn(-c3ccccc3)nc2cc1Cl)C1CC1	> 39.8 µM (inactive)
CC(C)(C)c1ccc(-c2coc(CCC(=O)Nc3ccccn3)n2)cc1	> 39.8 µM (inactive)
Cc1cccc(NC(=O)CCc2nc(-c3ccc(C(C)(C)C)cc3)no2)c1	> 39.8 µM (inactive)
CC(C)c1ccc2nc(Nc3nc4ccc(F)cc4s3)sc2c1	> 39.8 µM (inactive)
CC(C)(C)c1ccc(-c2noc(CCC(=O)Nc3ccncc3)n2)cc1	25.6 µM (inactive)
CN(C)C(=O)c1ccc2nc(Nc3nc4ccc(F)cc4s3)sc2c1	15.7 µM (inactive)
COc1ccc(-n2nc3cc(C)c(NC(=O)C(C)C)cc3n2)cc1	> 39.8 µM (inactive)
CC(C)(C)C(=O)Nc1ccc2nn(-c3ccccc3)nc2c1	> 39.8 µM (inactive)
Cc1ccc(-n2nc3ccc(NC(=O)COc4ccc(C)c(C)c4)cc3n2)cc1	> 39.8 µM (inactive)

Structure (SMILES)	IC50
Cc1ccc(OCC(=O)Nc2ccc3nn(-c4cccc(C(F)(F)F)c4)nc3c2)cc1C	> 39.8 µM (inactive)
CC(C)(C)c1ccc(-c2noc(CCC(=O)Nc3ccc(N4CCOCC4)nc3)n2)cc1	> 39.8 µM (inactive)
COc1ccc(-n2nc3ccc(NC(=O)C(C)(C)C)cc3n2)cc1	> 39.8 µM (inactive)
COc1ccc2nc(Nc3nc4ccc(F)cc4s3)sc2c1	> 39.8 µM (inactive)
COc1ccc(-n2nc3ccc(NC(=O)C4CCN(S(=O)(=O)c5ccc(Cl)cc5)CC4)cc3n2)cc1	31.2 µM (inactive)
CC(C)(C)c1ccc(-c2noc(CCc3nc4ccccc4[nH]3)n2)cc1	31.8 µM (inactive)
CCOc1ccc2nc(Nc3nc4ccc(F)cc4s3)sc2c1	> 39.8 µM (inactive)
CC(C)(C)c1ccc(-c2noc(CCC(=O)NCc3ccccc3)n2)cc1	24.1 µM (inactive)
CC(C)(C)c1ccc(-c2noc(CCCC(=O)Nc3ccccc3Cl)n2)cc1	> 39.8 µM (inactive)
O=C(Cc1ccccc1)Nc1cc2nn(-c3ccccc3)nc2cc1Cl	> 39.8 µM (inactive)
CC(C)(C)c1ccc(-c2noc(CCC(=O)Nc3ccccn3)n2)cc1	> 39.8 µM (inactive)
CS(=O)(=O)c1ccc2nc(Nc3nc4ccc(F)cc4s3)sc2c1	19.1 µM (inactive)
CC(C)(C)C(=O)Nc1ccc2nn(-c3ccc(F)cc3)nc2c1	> 39.8 µM (inactive)
Cc1ccc(-n2nc3cc(Cl)c(NC(=O)c4cccnc4)cc3n2)cc1	17.8 µM (inactive)
O=C(Nc1cc2nn(-c3ccccc3)nc2cc1Cl)C1COc2ccccc2C1 (configuration not stated)	> 39.8 µM (inactive)
CC(=O)c1sc(NC(=O)c2ccc3ncsc3c2)nc1-c1ccccc1	> 39.8 µM (inactive)
Nc1cc2nn(-c3ccccc3)nc2cc1Cl	> 39.8 µM (inactive)
CC(C)(C)c1ccc(-c2noc(CCC(=O)Nc3ccccc3)n2)cc1	> 39.8 µM (inactive)
